Active and inactive are the calls of the source. The rule behind the calls is not given here.
How the values were obtained:
[1] = biological target: Peroxisome proliferator-activated receptor delta (Homo sapiens, UniProt Q03181); assay: (§1) Agonist activity at GAL4 DNA-binding domain fused PPARdelta receptor (unknown origin) ligand binding domain expressed in UAS-bla HEK 293T cells assessed as beta-lactamase transcriptional activation by FRET-based GeneBLAzer assay; assay type: cell-based
[2] = biological target: T1, Estrogen receptor beta (Homo sapiens, UniProt Q92731); assay: Inhibition of fluorescein-tagged estrogen binding to GST-tagged ERbeta (unknown origin) ligand binding domain after 1 hr by LanthaScreen TR-FRET assay
[3] = biological target: T2, Estrogen receptor (Homo sapiens, UniProt P03372); assay: Inhibition of fluorescein-tagged estrogen binding to GST-tagged ERalpha (unknown origin) ligand binding domain after 1 hr by LanthaScreen TR-FRET assay
T2 sequence (P03372 whole entry): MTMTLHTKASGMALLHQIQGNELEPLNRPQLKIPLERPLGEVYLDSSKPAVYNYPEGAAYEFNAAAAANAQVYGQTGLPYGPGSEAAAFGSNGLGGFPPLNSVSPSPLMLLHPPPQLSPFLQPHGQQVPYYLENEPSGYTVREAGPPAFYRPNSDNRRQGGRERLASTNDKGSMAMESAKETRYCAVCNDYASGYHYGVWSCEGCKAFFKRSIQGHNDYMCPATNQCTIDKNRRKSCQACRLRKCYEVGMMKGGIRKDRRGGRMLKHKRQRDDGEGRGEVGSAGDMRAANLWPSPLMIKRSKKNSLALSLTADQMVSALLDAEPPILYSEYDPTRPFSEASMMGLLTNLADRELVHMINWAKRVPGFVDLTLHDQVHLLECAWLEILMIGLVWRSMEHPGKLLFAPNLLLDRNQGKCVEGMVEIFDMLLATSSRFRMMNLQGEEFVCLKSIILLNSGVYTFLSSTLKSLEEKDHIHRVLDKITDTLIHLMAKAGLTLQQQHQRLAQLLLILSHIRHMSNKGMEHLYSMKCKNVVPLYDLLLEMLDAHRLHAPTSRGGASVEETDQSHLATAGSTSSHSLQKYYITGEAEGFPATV

[4] = biological target: T2, Estrogen receptor; assay: Agonist activity at full length ERalpha (unknown origin) after 24 hrs by ERE-driven luciferase reporter gene assay
[5] = biological target: T1, Estrogen receptor beta; assay: Agonist activity at full length ERbeta (unknown origin) after 24 hrs by cell based ERE-driven luciferase reporter gene assay
[6] = biological target: T2, Estrogen receptor; assay: Antagonist activity at full length ERalpha (unknown origin) assessed as reduction in E2 induced response after 24 hrs by cell based ERE-driven luciferase reporter gene assay
[7] = biological target: T1, Estrogen receptor beta
Description: Antagonist activity at full length ERbeta (unknown origin) assessed as reduction in E2 induced response after 24 hrs by cell based ERE-driven luciferase reporter gene assay

[8] = biological target: Mineralocorticoid receptor (Homo sapiens) (UniProt P08235); assay: Agonist activity at GAL4 DNA-binding domain fused MR (unknown origin) ligand binding domain expressed in UAS-bla […] assessed as beta-lactamase transcriptional activation by FRET-based GeneBLAzer assay; assay type: cell-based
[9] = biological target: Peroxisome proliferator-activated receptor delta (Homo sapiens) (UniProt Q03181); assay: as §1; assay type: cell-based
[10] = biological target: Progesterone receptor (Homo sapiens) (UniProt P06401); assay: (§2) Agonist activity at GAL4 DNA-binding domain fused PR (unknown origin) ligand binding domain expressed in UAS-bla HEK 293T cells assessed as beta-lactamase transcriptional activation by FRET-based GeneBLAzer assay; assay type: cell-based
[11] = biological target: Vitamin D3 receptor (Homo sapiens) (UniProt P11473); assay: Agonist activity at GAL4 DNA-binding domain fused VDR (unknown origin) ligand binding domain expressed in UAS-bla HEK 293T cells assessed as beta-lactamase transcriptional activation by FRET-based GeneBLAzer assay; assay type: cell-based
[12] = biological target: Estrogen receptor (Homo sapiens) (UniProt P03372); assay: Agonist activity at GAL4 DNA-binding domain fused ERalpha (unknown origin) ligand binding domain expressed in UAS-bla GripTite 293 cells assessed as beta-lactamase transcriptional activation by FRET-based GeneBLAzer assay; assay type: cell-based
[13] = biological target: T1, Estrogen receptor beta; assay: Agonist activity at ERbeta (unknown origin) ligand binding domain assessed as fluorescein-labeled coactivator peptide recruitment by LanthaScreen TR-FRET assay
[14] = biological target: T1, Estrogen receptor beta; assay: Agonist activity at GAL4 DNA-binding domain fused ERbeta (unknown origin) ligand binding domain expressed in UAS-bla GripTite 293 cells assessed as beta-lactamase transcriptional activation by FRET-based GeneBLAzer assay; assay type: cell-based
[15] = biological target: T2, Estrogen receptor; assay: Agonist activity at ERalpha (unknown origin) ligand binding domain assessed as fluorescein-labeled coactivator peptide recruitment by LanthaScreen TR-FRET assay
[16] = organism: Homo sapiens; assay: Selectivity index, ratio of EC50 for ERalpha (unknown origin) LBD by fluorescein-labeled coactivator peptide recruitment based LanthaScreen TR-FRET assay to EC50 for ERbeta (unknown origin) LBD by fluorescein-labeled coactivator peptide recruitment based LanthaScreen TR-FRET assay
[17] = organism: Homo sapiens; assay: Selectivity index, ratio of IC50 for full-length human ERalpha to IC50 for full length human ERbeta
[18] = organism: Homo sapiens; assay: Selectivity ratio for ERbeta (unknown origin) over ERalpha (unknown origin)
[19] = biological target: 5-hydroxytryptamine receptor 1A (Homo sapiens) (UniProt P08908); assay: Displacement of [3H]-WAY100635 from human 5HT1A receptor expressed in stable CHO cells at 10 uM after 90 mins by microbeta scintillation counting method; assay type: cell-based
[20] = biological target: 5-hydroxytryptamine receptor 1D (Homo sapiens) (UniProt P28221); assay: Displacement of [3H]-5-CT from human 5-HT1D receptor expressed in HEKT cells at 10 uM after 90 mins by microbeta scintillation counting method; assay type: cell-based
[21] = biological target: 5-hydroxytryptamine receptor 2B (Homo sapiens) (UniProt P41595); assay: Displacement of [3H]-LSD from human 5-HT2B receptor expressed in stable HEK cells at 10 uM after 90 mins by microbeta scintillation counting method; assay type: cell-based
[22] = biological target: 5-hydroxytryptamine receptor 6 (Homo sapiens) (UniProt P50406); assay: Displacement of [3H]-LSD from human 5-HT6 receptor expressed in stable HEK cells at 10 uM after 90 mins by microbeta scintillation counting method; assay type: cell-based
[23] = biological target: 5-hydroxytryptamine receptor 7 (Homo sapiens) (UniProt P34969); assay: Displacement of [3H]-LSD from human 5-HT7A receptor expressed in stable HEK cells at 10 uM after 90 mins by microbeta scintillation counting method; assay type: cell-based
[24] = biological target: Alpha-1A adrenergic receptor (Homo sapiens) (UniProt P35348); assay: Displacement of [3H]-Prazosin from human adrenergic alpha1A receptor at 10 uM after 90 mins by microbeta scintillation counting method
[25] = biological target: Alpha-1B adrenergic receptor (Homo sapiens) (UniProt P35368); assay: Displacement of [3H]-Prazosin from human adrenergic alpha1B receptor expressed in HEKT cells at 10 uM after 90 mins by microbeta scintillation counting method; assay type: cell-based
[26] = biological target: Beta-1 adrenergic receptor (Homo sapiens) (UniProt P08588); assay: Displacement of [3H]-Pindolol from human adrenergic beta1 receptor expressed in Flp-In CHO cells at 10 uM after 90 mins by microbeta scintillation counting method; assay type: cell-based
[27] = biological target: Beta-3 adrenergic receptor (Homo sapiens) (UniProt P13945); assay: Displacement of [3H]-CGP12177 from human adrenergic beta3 receptor expressed in Flp-In HEK cells at 10 uM after 90 mins by microbeta scintillation counting method; assay type: cell-based
[28] = biological target: Sigma non-opioid intracellular receptor 1 (Homo sapiens) (UniProt Q99720); assay: Displacement of [3H]-Pentazocine from human sigma1 receptor expressed in HEKT cells at 10 uM after 90 mins by microbeta scintillation counting method; assay type: cell-based
[29] = biological target: Sigma intracellular receptor 2 (Homo sapiens) (UniProt Q5BJF2); assay: Displacement of [3H]-ditolylguanidine from human sigma2 receptor expressed in HEKT cells at 10 uM after 90 mins by microbeta scintillation counting method; assay type: cell-based
[30] = biological target: Histamine H2 receptor (Homo sapiens) (UniProt P25021); assay: Displacement of [125I]-iodoaminopotentidine from human histamine H2 receptor expressed in HEK Flp-In cells at 10 uM after 90 mins by microbeta scintillation counting method; assay type: cell-based
[31] = biological target: Histamine H2 receptor (Homo sapiens) (UniProt P25021); assay: Displacement of [3H]-histamine from human histamine H2 receptor expressed in HEKT cells at 10 uM after 90 mins by microbeta scintillation counting method; assay type: cell-based
[32] = biological target: hERG (KCNH2) (Homo sapiens, UniProt Q12809); assay: Displacement of [3H]-dofetilide from human ERG expressed in HEK cells at 10 uM after 90 mins by microbeta scintillation counting method; assay type: cell-based; settings: HEK cells expressing human ERG, probe [3H]-dofetilide
[33] = biological target: Cytochrome P450 2D6 (Homo sapiens, UniProt P10635); assay: Inhibition of CYP2D6 (unknown origin) using luciferin-ME EGE as substrate preincubated for 10 mins followed by NADPH regeneration system addition and measured after 30 to 45 mins by Promega P450-GloScreening assay; assay type: ADME
[34] = biological target: Cytochrome P450 3A4 (Homo sapiens, UniProt P08684); assay: Inhibition of CYP3A4 (unknown origin) using luciferin-IPA as substrate preincubated for 10 mins followed by NADPH regeneration system addition and measured after 10 to 30 mins by Promega P450-GloScreening assay; assay type: ADME
[35] = biological target: Cytochrome P450 2C9 (Homo sapiens, UniProt P11712); assay: Inhibition of CYP2C9 (unknown origin) using luciferin-H as substrate preincubated for 10 mins followed by NADPH regeneration system addition and measured after 30 mins by Promega P450-GloScreening assay; assay type: ADME
[36] = biological target: Cytochrome P450 1A2 (Homo sapiens, UniProt P05177); assay: Inhibition of CYP1A2 (unknown origin) using luciferin-ME as substrate preincubated for 10 mins followed by NADPH regeneration system addition and measured after 10 to 30 mins by Promega P450-GloScreening assay; assay type: ADME
[37] = Solubility of the compound in buffer containing 20 mM potassium phosphate of pH 7.5 and 1% DMSO up to 250 uM by nephelometry; assay type: physicochemical
[38] = test system: MCF7; assay: Antiproliferative activity against human MCF7 cells at 0.01 to 10 uM after 24 hrs by MTT assay; assay type: functional, cell-based
[39] = biological target: Progesterone receptor (Homo sapiens, UniProt P06401); assay: as §2; assay type: cell-based

T1 sequence (Q92731 whole entry, the tested form may be a part): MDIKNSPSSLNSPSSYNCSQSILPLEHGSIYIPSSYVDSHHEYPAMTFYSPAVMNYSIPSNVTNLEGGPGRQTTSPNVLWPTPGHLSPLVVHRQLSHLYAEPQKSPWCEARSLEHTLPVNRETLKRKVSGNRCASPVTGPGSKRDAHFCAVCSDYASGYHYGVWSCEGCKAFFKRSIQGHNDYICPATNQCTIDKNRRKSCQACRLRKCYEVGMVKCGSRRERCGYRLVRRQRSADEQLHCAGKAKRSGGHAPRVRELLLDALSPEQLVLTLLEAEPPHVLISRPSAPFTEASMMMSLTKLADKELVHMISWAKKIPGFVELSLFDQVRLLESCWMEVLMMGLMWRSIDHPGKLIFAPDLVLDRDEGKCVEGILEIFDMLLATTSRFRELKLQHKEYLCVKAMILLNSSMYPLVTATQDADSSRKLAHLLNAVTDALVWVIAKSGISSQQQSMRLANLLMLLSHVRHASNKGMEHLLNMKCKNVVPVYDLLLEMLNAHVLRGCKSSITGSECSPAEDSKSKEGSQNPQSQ
Histamine H2 receptor (Homo sapiens), sequence (P25021 whole entry): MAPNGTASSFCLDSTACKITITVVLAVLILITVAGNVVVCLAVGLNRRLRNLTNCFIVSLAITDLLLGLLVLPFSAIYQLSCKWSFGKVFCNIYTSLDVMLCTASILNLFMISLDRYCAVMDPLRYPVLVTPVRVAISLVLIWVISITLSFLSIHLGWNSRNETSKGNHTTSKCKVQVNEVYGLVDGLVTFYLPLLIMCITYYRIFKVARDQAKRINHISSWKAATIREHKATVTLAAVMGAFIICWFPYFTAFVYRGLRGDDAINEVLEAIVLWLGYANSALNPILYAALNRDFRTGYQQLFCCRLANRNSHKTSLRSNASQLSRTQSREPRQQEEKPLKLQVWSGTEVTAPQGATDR
Peroxisome proliferator-activated receptor delta, sequence (Q03181 whole entry, the tested form may be a part): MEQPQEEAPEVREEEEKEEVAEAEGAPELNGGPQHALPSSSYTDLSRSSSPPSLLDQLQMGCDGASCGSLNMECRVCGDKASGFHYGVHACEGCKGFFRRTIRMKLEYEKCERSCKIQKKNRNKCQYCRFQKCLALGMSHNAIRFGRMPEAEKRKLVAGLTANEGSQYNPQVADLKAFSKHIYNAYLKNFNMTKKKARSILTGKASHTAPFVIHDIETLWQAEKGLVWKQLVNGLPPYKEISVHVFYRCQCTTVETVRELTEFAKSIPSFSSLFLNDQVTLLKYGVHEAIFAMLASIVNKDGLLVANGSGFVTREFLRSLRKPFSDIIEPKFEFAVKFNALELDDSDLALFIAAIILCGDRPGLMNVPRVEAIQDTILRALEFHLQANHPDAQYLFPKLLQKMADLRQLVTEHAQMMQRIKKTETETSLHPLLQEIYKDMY
Peroxisome proliferator-activated receptor delta (Homo sapiens), sequence (Q03181 whole entry, the tested form may be a part): as above
Alpha-1B adrenergic receptor (Homo sapiens), sequence (P35368 whole entry): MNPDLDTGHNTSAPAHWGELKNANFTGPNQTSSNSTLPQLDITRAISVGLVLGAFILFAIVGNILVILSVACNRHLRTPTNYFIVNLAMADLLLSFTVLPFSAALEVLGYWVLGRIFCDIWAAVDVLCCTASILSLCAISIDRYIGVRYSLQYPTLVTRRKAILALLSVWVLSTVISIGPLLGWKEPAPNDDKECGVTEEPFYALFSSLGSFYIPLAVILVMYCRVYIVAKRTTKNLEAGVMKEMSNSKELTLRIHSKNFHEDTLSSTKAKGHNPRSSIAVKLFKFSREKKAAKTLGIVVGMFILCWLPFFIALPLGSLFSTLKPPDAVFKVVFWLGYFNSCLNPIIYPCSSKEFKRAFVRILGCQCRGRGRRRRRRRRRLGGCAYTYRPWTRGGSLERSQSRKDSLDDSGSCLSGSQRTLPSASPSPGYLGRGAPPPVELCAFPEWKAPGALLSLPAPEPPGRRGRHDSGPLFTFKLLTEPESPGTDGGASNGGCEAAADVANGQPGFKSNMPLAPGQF
5-hydroxytryptamine receptor 1D (Homo sapiens), sequence (P28221 whole entry): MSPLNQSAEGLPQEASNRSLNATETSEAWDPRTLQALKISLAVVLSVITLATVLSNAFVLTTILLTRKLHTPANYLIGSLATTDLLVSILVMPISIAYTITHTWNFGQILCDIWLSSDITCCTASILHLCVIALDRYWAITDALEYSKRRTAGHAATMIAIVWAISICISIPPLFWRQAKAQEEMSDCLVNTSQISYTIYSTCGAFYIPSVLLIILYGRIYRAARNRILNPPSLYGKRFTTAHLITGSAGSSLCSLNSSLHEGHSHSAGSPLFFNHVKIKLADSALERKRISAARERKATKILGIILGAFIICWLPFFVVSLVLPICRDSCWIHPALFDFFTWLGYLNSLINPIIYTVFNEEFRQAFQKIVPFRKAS
5-hydroxytryptamine receptor 2B (Homo sapiens), sequence (P41595 whole entry): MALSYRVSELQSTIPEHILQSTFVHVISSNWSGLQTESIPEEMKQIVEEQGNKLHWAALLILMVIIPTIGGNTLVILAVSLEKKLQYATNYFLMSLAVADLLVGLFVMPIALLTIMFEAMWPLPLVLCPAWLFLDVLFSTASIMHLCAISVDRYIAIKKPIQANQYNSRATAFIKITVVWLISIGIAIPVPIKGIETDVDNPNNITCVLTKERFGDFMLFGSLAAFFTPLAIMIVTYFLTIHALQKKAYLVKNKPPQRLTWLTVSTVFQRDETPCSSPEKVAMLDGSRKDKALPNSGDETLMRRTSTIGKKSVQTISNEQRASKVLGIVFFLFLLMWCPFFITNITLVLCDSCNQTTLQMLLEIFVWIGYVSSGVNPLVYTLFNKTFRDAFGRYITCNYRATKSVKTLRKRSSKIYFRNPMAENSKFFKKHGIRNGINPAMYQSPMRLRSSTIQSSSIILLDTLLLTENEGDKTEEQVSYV
Vitamin D3 receptor (Homo sapiens), sequence (P11473 whole entry, the tested form may be a part): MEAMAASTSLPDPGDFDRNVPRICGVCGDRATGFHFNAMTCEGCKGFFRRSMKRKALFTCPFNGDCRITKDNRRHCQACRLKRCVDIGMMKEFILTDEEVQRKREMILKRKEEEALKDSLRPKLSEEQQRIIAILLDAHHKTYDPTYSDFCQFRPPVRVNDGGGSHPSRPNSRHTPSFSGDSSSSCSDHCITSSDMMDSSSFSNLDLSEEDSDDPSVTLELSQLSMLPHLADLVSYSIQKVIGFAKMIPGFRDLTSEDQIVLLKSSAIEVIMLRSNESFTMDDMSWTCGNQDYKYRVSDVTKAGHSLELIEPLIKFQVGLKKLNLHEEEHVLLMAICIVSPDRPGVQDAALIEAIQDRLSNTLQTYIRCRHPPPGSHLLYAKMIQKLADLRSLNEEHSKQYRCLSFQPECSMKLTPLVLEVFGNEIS
Cytochrome P450 1A2, sequence (P05177 whole entry): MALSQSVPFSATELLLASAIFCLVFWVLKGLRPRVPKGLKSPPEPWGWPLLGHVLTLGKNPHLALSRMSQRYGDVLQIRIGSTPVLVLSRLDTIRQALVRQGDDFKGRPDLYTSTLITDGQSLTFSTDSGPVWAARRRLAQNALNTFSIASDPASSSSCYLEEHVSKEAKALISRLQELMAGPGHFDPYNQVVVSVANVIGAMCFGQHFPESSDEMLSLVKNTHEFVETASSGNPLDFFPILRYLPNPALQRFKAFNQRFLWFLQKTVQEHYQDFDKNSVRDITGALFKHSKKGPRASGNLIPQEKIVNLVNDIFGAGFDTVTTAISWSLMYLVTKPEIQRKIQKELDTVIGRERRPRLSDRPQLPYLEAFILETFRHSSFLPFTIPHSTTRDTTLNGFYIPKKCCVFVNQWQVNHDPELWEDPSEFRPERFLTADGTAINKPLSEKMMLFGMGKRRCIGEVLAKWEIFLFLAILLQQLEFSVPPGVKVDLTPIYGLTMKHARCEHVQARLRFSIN
Beta-3 adrenergic receptor (Homo sapiens), sequence (P13945 whole entry, looked up): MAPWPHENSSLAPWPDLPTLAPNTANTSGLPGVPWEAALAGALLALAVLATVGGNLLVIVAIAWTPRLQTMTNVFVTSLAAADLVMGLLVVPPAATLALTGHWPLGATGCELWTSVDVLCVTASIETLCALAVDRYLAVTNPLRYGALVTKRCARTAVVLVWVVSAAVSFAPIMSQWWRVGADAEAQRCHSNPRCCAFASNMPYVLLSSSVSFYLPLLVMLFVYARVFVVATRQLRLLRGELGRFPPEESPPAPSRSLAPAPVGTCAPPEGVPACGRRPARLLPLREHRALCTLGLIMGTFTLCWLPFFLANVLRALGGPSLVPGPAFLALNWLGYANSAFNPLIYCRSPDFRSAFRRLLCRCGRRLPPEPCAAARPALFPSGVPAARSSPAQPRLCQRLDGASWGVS
Sigma non-opioid intracellular receptor 1 (Homo sapiens), sequence (Q99720 whole entry): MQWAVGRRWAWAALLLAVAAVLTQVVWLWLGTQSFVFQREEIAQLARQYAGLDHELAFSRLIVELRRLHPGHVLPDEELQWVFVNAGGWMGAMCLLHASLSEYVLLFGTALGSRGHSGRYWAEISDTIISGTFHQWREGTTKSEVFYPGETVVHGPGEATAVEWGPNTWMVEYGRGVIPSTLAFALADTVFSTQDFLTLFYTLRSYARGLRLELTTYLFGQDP
Sigma intracellular receptor 2 (Homo sapiens), sequence (Q5BJF2 whole entry): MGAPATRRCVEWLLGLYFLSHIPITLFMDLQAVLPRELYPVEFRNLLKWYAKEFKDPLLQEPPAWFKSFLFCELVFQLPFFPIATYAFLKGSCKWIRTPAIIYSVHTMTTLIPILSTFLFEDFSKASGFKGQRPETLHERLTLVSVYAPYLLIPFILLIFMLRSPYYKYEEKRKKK

| SMILES | EC50 [2] | EC50 [3] | EC50 [4] | EC50 [5] | EC50 [6] | EC50 [7] | other results |
| --- | --- | --- | --- | --- | --- | --- | --- |
| CCCc1c(OCCCOc2ccc(OCC(=O)O)cc2)ccc(C(C)=O)c1O | – | – | – | – | – | – | IC50 [1]: 12.6 nM |
| OC[C@H]1CCC[C@@H](c2ccc(O)cc2)CC1 | 99 nM | 221 nM | > 10000 nM | 121 nM | > 10000 nM | > 10000 nM | – |
| OC[C@@H]1CCC[C@H](c2ccc(O)cc2)CC1 | 66 nM | 199 nM | > 11600 nM | 51 nM | > 11600 nM | > 11600 nM | Activity [8]: inactive; Activity [9]: inactive; Activity [10]: inactive; Activity [11]: inactive; Activity [12]: Active; EC50 [13]: 566 nM; Activity [14]: Active; EC50 [15]: 2660 nM; Ratio EC50 [16]: 4.7 |
| C=Cc1cc(O)cc2nc(-c3ccc(O)c(F)c3)oc12 | – | – | – | – | – | – | Ratio IC50 [17]: 255 |
| C=Cc1cc(O)cc2nc(-c3ccc(O)cc3)oc12 | – | – | – | – | – | – | Selectivity ratio [18]: 127 |
| N#Cc1cc(O)cc2c3c(oc12)-c1ccc(O)cc1CC3 | – | – | – | – | – | – | Selectivity ratio [18]: 157 |
| Oc1ccc(C2CCCC(O)CC2)cc1 (racemic) | 42 nM | – | > 10000 nM | 362 nM | > 10000 nM | > 10000 nM | – |
| Oc1ccc(C23CCCC(CC2)CO3)cc1 (racemic) | 509 nM | – | – | – | – | – | – |
| O/N=C1\CCCC(c2ccc(O)cc2)CC1 (racemic) | 600 nM | – | > 10000 nM | > 800 nM | > 10000 nM | > 10000 nM | – |
| OCC1CCCC(c2ccc(O)cc2)CC1 (racemic) | 53 nM | 99 nM | 10500 nM | 33 nM | > 10000 nM | > 100000 nM | inhibition [19]: 14.6%; inhibition [20]: 25.3%; inhibition [21]: -7.3%; inhibition [22]: 19%; inhibition [23]: -8.5%; inhibition [24]: -3.7%; inhibition [25]: -4.9%; inhibition [26]: -4.8%; inhibition [27]: 16%; inhibition [28]: 17.1%; inhibition [29]: 31.9%; inhibition [30]: 2.7%; inhibition [31]: -0.1%; inhibition at 1.5 h, 10 µM [32]: -1.7%; IC50 [33]: 73000 nM; IC50 [34]: 33000 nM; IC50 [35]: 2700 nM; IC50 [36]: 130000 nM; solubility [37]: Soluble; Activity [38]: Active |
| OC[C@@H]1CCC[C@@H](c2ccc(O)cc2)CC1 (stereo in doubt) | 28 nM | 61 nM | > 10000 nM | 48 nM | > 10000 nM | > 23200 nM | – |
| CCC(=O)[C@@]1(C)CC[C@H]2[C@@H]3CCC4=CC(=O)CCC4=C3CC[C@@]21C [PROMEGESTONE] | – | – | – | – | – | – | IC50 [39]: 0.236 nM |

Continued, in another order:

| EC50 [2] | EC50 [3] | EC50 [4] | EC50 [5] | EC50 [6] | EC50 [7] | SMILES | other results |
| --- | --- | --- | --- | --- | --- | --- | --- |
| 75 nM | – | > 10000 nM | 139 nM | > 10000 nM | > 10000 nM | OCCC1CCCC(c2ccc(O)cc2)CC1 (racemic) | – |
| 435 nM | – | – | – | – | – | O=C1CCCC(c2ccc(O)cc2)CC1 (racemic) | – |
| 18 nM | 96 nM | > 3000 nM | 50 nM | > 35600 nM | > 35600 nM | OC[C@H]1CCC[C@H](c2ccc(O)cc2)CC1 (stereo in doubt) | – |
